These results are taken from article PMC9865645, “The Impact of N^ε-Acryloyllysine Piperazides on the Conformational Dynamics of Transglutaminase 2” (International Journal of Molecular Sciences, 2023).

This experiment deals with T1, self-produced hTGase 2 (Homo sapiens, UniProt P21980).
T1 construct: thrombin cleavage site (N); made in house; host or cells: E. coli BL21(DE3)
T1 sequence (P21980 1-687): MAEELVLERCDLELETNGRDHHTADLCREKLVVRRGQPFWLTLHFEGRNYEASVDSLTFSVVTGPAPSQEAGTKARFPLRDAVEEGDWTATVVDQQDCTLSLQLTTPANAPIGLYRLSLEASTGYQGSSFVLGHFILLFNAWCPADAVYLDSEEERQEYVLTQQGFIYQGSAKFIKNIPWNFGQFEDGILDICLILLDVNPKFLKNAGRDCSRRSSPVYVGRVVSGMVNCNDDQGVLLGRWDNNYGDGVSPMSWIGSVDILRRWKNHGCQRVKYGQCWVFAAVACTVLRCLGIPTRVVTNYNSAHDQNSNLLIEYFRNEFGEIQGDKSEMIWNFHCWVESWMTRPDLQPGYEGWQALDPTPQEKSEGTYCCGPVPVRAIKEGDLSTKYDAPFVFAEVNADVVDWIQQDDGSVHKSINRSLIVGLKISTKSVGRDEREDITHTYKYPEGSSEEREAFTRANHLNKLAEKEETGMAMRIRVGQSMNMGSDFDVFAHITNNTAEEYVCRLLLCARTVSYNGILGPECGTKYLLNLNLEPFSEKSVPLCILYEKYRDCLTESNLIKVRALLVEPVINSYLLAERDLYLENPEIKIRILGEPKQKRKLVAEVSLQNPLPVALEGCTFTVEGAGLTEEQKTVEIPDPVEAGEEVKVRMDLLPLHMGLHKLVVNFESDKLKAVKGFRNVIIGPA
Description: native GTP-PAGE with increasing concentrations of inhibitor, band quantification. It is filed as biochemical. Conditions: 8.23 µM hTGase 2; for IC50: 50 µM GTP in gel and buffer. As to the method: Figure 8 Effect of increasing concentrations of inhibitor 2 on the activity and the conformation of hTGase 2. Native GTP-PAGE was performed on 7% separating gels. Both the gel and the running buffer contained 50 µM GTP without (A) and with an additional 500 µM MgCl2 (B). Samples of 8.23 µM self-produced hTGase 2 were first incubated for 30 min at 20 °C in 100 mM MOPS pH 8.0, 100 mM NaCl, 2.12% (v/v) DMSO, 5.33% (v/v) glycerol with CaCl2, GTP, MgCl2, and different concentrations of inhibitor 2, as indicated. GTP and/or MgCl2 were added as indicated, and all samples were incubated for 60 min at 20 °C. After adding native loading buffer, 6 µL of each sample containing 3 µg of hTGase 2 was loaded onto the gel. After electrophoretic separation, gels were stained with Coomassie Brilliant Blue G250, scanned, and the protein bands were quantified (Figure S7 in Supplementary Materials). Four species of hTGase 2, i.e., oligomers and slow-, intermediate-, and fast-migrating species, were identified, with slow- and intermediate-migrating species combined for the quantitative analysis. (C) Percentage of the signals of the three species per lane and (D) percentage of the oligomers’ signal plotted versus the concentration of inhibitor 2. (E) Signals of the slow-/intermediate-migrating and fast-migrating species were added and set to one. (F) Portion of the fast-migrating species in (E) was plotted against the concentration of inhibitor 2. The IC50 values in (D,F) were calculated by non-linear regression according to Equation (S29) in Supplementary Materials.
Sodium dodecyl sulfate-PAGE (SDS-PAGE) and native PAGE were performed on 4% stacking and 7% separating gels using Laemmli buffers (60 min with 120 V, 300 mA and 30 W at room temperature) and the same buffers without SDS (80 min with 120 V, 50 mA and 30 W at 4 °C), respectively. Buffers and gels were as follows: (i) for SDS-PAGE: stacking gel: 0.125 M TRIS pH 6.8, 4% (v/v) acrylamide-bisacrylamide, 0.1% (m/v) SDS; separating gel: 0.375 M TRIS pH 8.8, 7% (v/v) acrylamide-bisacrylamide, 0.1% (m/v) SDS; running buffer: 0.025 M TRIS pH 8.3, 0.2 M glycine, 0.1% (m/v) SDS; (ii) for native PAGE: the same buffers and gels were used without the addition of SDS. Native PAGE experiments, where 50 µM of GTP was added to the stacking and separating gels and the running buffer, are specified as “native GTP-PAGE” (with italic letters). In contrast, experiments without GTP are denoted as “native PAGE” (with italics letters). The term “native (GTP-)PAGE” (with italics letters) is used when we refer to both methods. Further conditions of the SDS-PAGE and native (GTP-)PAGE are detailed in the legends of Figure 7 and Figure 8 and Figures S4–S6 (Supplementary Materials). For the loading of samples onto the stacking gel, three parts of the sample solution were mixed with one part of the respective loading buffer. In the case of SDS-PAGE, SDS loading buffer (0.24 M TRIS, 40% (v/v) glycerol, 8% (m/v) SDS, 2% (v/v) 2-mercaptoethanol, and 0.08% (m/v) bromphenol blue) were used, followed by the denaturation of the mixture for 5 min at 60 °C. […] Afterward, the gels were scanned using a LI-COR Odyssey Fc Imager (700 channel) and analyzed using Image Studio software version 5.2.5. Detected bands were quantified based on the general procedure published by Wagstaff et al. and as detailed in legends to Figures S5 and S6. […]

Each structure is given as a SMILES string. Read-outs that look alike come from different tables or passages of the source.

As a reminder, the IC50 is the point on the concentration scale where inhibition reaches its midpoint. Take `C=CC(=O)NCCCC[C@H](NC(=O)Cc1ccccc1I)C(=O)N1CCN(c2ccc([N+](=O)[O-])nc2)CC1` [Compound 2, N^α-(2-Iodophenylacetyl)-N^ε-acryloyl-L-lysin-4-(2-nitropyridin-5-yl)piperazide]: the IC50 (Gel A (w/o Mg^2+), read-out: IC50, percentage of the oligomers' signal (Figure 8D)) is 5.58 µM; the IC50 (Gel A (w/o Mg^2+), read-out: IC50, portion of the fast-migrating (closed) species of monomeric hTGase 2 (Figure 8F)) was 5.28 µM; the IC50 (Gel B (with Mg^2+, 500 µM MgCl2), read-out: IC50, percentage of the oligomers' signal (Figure 8D)) is 5.71 µM; the IC50 (Gel B (with Mg^2+, 500 µM MgCl2), read-out: IC50, portion of the fast-migrating (closed) species of monomeric hTGase 2 (Figure 8F)) was 5.68 µM. Moreover, the “ratio of the IC50 and the molar enzyme concentration” value (native GTP-PAGE, calculated from values in Figure 8D,F) is on record as 0.64–0.69.
